Measured values as given in patent US12629363B2, “Prophylaxis and treatment of angioedema” (PHARVARIS GMBH, priority 2020, dated 2026).
Values after ≈ are worked out from the molar mass of the structure shown.

Columns and labels:
[1] = Drug-drug interaction trial with itraconazole, PK (Example 5)
Procedure: Thirteen healthy subjects were enrolled and completed the study.
On Days 4 to 8, subjects received once daily oral doses of 200 mg itraconazole one hour before start of a standard meal.
Trough plasma concentrations of itraconazole were determined by taking predose plasma samples on Days 4-7, to document exposure to itraconazole.

[2] = biological target: T1, cynomolgus monkey B2 receptor (Macaca fascicularis, UniProt A0A7N9CWN6); assay: Antagonist potency in cells expressing cynomolgus monkey B2 receptor; assay type: cell-based; conditions: read-out: Kb value to antagonize BK activation
T1 sequence (A0A7N9CWN6 1-391): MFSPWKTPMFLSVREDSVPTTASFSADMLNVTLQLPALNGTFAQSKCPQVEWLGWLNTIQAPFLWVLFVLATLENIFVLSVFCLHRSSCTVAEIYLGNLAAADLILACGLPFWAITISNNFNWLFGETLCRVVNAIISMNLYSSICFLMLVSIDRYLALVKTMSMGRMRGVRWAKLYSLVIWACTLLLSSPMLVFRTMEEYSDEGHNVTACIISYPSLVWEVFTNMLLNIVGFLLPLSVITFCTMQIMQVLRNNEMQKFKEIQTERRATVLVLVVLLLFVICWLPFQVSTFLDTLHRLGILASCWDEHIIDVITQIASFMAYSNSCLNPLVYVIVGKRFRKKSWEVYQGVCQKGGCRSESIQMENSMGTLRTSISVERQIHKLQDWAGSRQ
Text: (§1) The bradykinin B2 receptor is well known for its species selective pharmacology (Paquet et al., Br. J. Pharmacol. (126), 1083-1090, 1999 (DOI: 10.1038/sj.bjp.0702403); Burgess et al., Br. J. Pharmacol. (129), 77-86, 2000 (DOI: 10.1038/sj.bjp.0703012)). […] Pharmacol. 11:916; DOI: 10.3389/fphar.2020.00916.

[3] = biological target: T2, rat B2 receptor (Rattus norvegicus, UniProt P25023); assay: Antagonist potency in cells expressing rat B2 receptor; assay type: cell-based; conditions: rat B2 receptor
T2 construct: expressed in transfected cells
T2 sequence (P25023 1-396): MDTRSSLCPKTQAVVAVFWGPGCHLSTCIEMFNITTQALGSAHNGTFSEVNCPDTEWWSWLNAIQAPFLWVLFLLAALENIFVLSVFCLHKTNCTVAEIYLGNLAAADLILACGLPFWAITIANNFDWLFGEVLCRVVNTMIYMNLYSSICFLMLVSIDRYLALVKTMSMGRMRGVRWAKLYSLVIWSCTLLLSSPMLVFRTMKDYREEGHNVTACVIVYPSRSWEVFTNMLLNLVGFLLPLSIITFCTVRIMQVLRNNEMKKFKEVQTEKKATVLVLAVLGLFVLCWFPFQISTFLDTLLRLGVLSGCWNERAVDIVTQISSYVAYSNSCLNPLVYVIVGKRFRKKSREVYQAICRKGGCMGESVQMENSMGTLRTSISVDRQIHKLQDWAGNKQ
Text: as §1

[4] = biological target: T3, mouse B2 receptor (Mus musculus, UniProt P32299); assay: Antagonist potency in cells expressing mouse B2 receptor; assay type: cell-based; conditions: mouse B2 receptor
T3 construct: expressed in transfected cells
T3 sequence (P32299 1-392): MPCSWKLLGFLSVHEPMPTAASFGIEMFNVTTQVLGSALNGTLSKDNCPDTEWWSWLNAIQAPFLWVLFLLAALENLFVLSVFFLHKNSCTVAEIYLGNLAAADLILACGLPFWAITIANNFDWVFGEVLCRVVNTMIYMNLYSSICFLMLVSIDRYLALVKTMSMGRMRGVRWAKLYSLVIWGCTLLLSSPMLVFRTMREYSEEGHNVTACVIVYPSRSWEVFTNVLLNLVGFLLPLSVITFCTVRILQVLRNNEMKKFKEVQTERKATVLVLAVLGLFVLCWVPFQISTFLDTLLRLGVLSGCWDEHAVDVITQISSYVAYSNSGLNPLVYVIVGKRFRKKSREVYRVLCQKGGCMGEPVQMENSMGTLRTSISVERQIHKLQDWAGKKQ
Text: as §1

[5] = biological target: T4, dog B2 receptor (Canis lupus familiaris, UniProt Q9BDQ4); assay: Antagonist potency in cells expressing dog B2 receptor; assay type: cell-based; conditions: dog B2 receptor
T4 construct: expressed in transfected cells
T4 sequence (Q9BDQ4 1-392): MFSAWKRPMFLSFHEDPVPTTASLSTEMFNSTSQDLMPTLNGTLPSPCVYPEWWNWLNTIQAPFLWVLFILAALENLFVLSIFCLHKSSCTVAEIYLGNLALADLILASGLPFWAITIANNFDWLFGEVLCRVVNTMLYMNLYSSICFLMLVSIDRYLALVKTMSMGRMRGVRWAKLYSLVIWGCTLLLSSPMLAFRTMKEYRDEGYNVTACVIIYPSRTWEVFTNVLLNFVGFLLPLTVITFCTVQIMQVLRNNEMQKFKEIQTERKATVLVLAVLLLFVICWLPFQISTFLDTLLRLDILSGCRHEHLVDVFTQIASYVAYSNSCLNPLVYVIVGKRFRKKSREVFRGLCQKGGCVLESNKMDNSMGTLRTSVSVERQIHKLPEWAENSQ
Text: as §1

[6] = test system: acute HAE attacks; conditions: cited from earlier work
[7] = in vivo; cited from earlier work
[8] = biological target: T5, BK B2 receptor (Homo sapiens, UniProt P30411); conditions: cited from earlier work
T5 sequence (P30411 1-391): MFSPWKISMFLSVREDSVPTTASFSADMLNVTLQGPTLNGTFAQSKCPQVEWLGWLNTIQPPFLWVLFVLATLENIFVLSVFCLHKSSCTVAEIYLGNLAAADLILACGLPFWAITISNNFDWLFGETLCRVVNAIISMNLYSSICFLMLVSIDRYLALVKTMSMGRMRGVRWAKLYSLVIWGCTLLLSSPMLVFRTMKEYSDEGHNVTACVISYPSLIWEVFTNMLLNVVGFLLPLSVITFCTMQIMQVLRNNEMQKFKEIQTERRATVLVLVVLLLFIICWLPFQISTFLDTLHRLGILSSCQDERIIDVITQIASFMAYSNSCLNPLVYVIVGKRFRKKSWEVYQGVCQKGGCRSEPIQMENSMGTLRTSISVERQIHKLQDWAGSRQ

Row | mean predose plasma concentration (Ctrough) ([1]; Day 4, itraconazole 200 mg dosing) [ng/mL] | mean predose plasma concentration (Ctrough) ([1]; Day 7, itraconazole 200 mg dosing) [ng/mL] | Compound | Kb [2] [nM] | Kb [3] [nM] | Kb [4] [nM] | Kb [5] [nM] | time after which therapeutic response to an acute HAE attack wanes ([6]; human, in vivo) | onset of relief in acute HAE attacks ([6]; placebo 19.8 h, Lumry et al. 2011) [h] | half-life [7] [h] | Time plasma level above EC85 at a 75% confidence level ([8]; in vivo, sc) [h] | Time plasma level above EC85 at a 75% confidence level, DBP ([8]; in vivo, sc) [h] | Time plasma level above EC85 at a 75% confidence level, MAP ([8]; in vivo, sc) [h] | intrinsic PD potency at the K B2 receptor ([8]; in vivo) [nM] | time plasma concentration above EC85 (85% effective) at 50% probability ([8]; in vivo) [h] | EC85 (published, BK challenge) ([8]; plasma concentration, FDA Clinical Pharmacology Review Firazyr) [ng/mL]
1 | 386 ± 82.2 | 597 ± 178 | CCC(C)n1ncn(-c2ccc(N3CCN(c4ccc(OCC5COC(Cn6cncn6)(c6ccc(Cl)cc6Cl)O5)cc4)CC3)cc2)c1=O (stereo not drawn) [itraconazole] |  |  |  |  |  |  |  |  |  |  |  |  | 
2 |  |  | NC(N)=NCCC[C@@H](N)C(=O)N[C@@H](CCCN=C(N)N)C(=O)N1CCC[C@H]1C(=O)N1C[C@H](O)C[C@H]1C(=O)NCC(=O)N[C@@H](Cc1cccs1)C(=O)N[C@@H](CO)C(=O)N1Cc2ccccc2C[C@@H]1C(=O)N1[C@H](C(=O)N[C@@H](CCCN=C(N)N)C(=O)O)C[C@@H]2CCCC[C@@H]21 [icatibant] | 4.06 | 5.6 | 4.4 | 30.7 | approximately 6 hours | 2.0 | 1.4 | 5.5 | 5.5 | 5.5 | 8.9 | 5.5 | 53.8 (≈ 0.0412 µM)
